The values that follow come from patent publication US12660819B2, “Herbicidal derivatives” (SYNGENTA CROP PROTECTION AG, priority 2020, dated 2026).

Type in all cases: in vivo
Assay [1] concerns Abutilon theophrasti (ABUTH). Kind of assay: Post-emergence Test (glasshouse, percentage damage to the plant). The following applies: post-emergence spray, 1000 g/ha unless otherwise stated, evaluated after 13 days. Put shortly: (§1)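 Sown pots; spray 1000 g/ha (unless stated) in acetone/water 50:50 + 0.5% Tween 20; glasshouse 24/16 °C, 14 h light, 65% RH; watered twice daily; % damage read at 13 days, scored 1–5.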

Assay [2] relates to Amaranthus retoflexus (AMARE). Described as above. The following applies: post-emergence spray, 1000 g/ha unless otherwise stated, evaluated after 13 days. The essentials:
as §1

Assay [3] relates to Echinochloa crus-galli (ECHCG). The assay is described as above. Particulars: post-emergence spray, 1000 g/ha unless otherwise stated, evaluated after 13 days. Put shortly: as §1
Assay [4] has as its system Ipomoea hederacea (IPOHE). Described as above. Particulars: post-emergence spray, 1000 g/ha unless otherwise stated, evaluated after 13 days. The essentials: (§2)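 Scored 13 days after spraying as percentage plant damage in five bands (5=81–100%, 4=61–80%, 3=41–60%, 2=21–40%, 1=0–20%). Spray at 1000 g/ha unless stated, in acetone/water 50:50 plus 0.5% Tween 20, onto sown glasshouse pots (24/16 °C, 14 h light, 65% humidity).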

Assay [5] deals with Setaria faberi (SETFA). The assay is described as above. The following applies: post-emergence spray, 1000 g/ha unless otherwise stated, evaluated after 13 days. Put shortly:
as §2

The subject of assay [6] is Zea mays (ZEAMX). The assay is described as above. Particulars: post-emergence spray, 1000 g/ha unless otherwise stated, evaluated after 13 days. The essentials: as §2
In assay [7] the test system is Amaranthus retoflexus (AMARE). Put plainly: Pre-emergence Test (glasshouse, percentage damage to the plant). The following applies: 1000 g/ha unless otherwise stated, five-point scale.
In assay [8] the test system is Setaria faberi (SETFA). The description is as above. The following applies: 1000 g/ha unless otherwise stated, five-point scale.
Assay [9] deals with Echinochloa crus-galli (ECHCG). Described as above. The following applies: 1000 g/ha unless otherwise stated, five-point scale.
Assay [10] concerns Ipomoea hederacea (IPOHE). The description is as above. Particulars: 1000 g/ha unless otherwise stated, five-point scale.
The subject of assay [11] is Abutilon theophrasti (ABUTH). The assay is described as above. The following applies: 1000 g/ha unless otherwise stated, five-point scale.
Assay [12] has as its system Zea mays (ZEAMX). Described as above. The following applies: 1000 g/ha unless otherwise stated, five-point scale.

Molecules are shown by their SMILES.

Take `CCn1c(C)c(-c2cc(F)cc(OCC(F)(F)F)c2)c(=O)c(C(=O)O)c1-c1ccc(Cl)c(Cl)c1` [Compound 94, 2-(3,4-dichlorophenyl)-1-ethyl-5-[3-fluoro-5-(2,2,2-trifluoroethoxy)phenyl]-6-methyl-4-oxo-pyridine-3-carboxylic acid]: the “Post-emergence Test ABUTH, percentage damage to the plant (five-point scale)” value in assay [1] was 1 (1=0-20%). The “Post-emergence Test AMARE, percentage damage to the plant (five-point scale)” value in [2] is 1 (1=0-20%). Besides, the “Post-emergence Test ECHCG, percentage damage to the plant (five-point scale)” value in assay [3] is reported as 1 (1=0-20%). Further, in assay [4], the “Post-emergence Test IPOHE, percentage damage to the plant (five-point scale)” value is given as 1 (1=0-20%). For the same compound, in the assay with Setaria faberi (SETFA) [5], the “Post-emergence Test SETFA, percentage damage to the plant (five-point scale)” value is 1 (1=0-20%). Further, the “Post-emergence Test ZEAMX, percentage damage to the plant (five-point scale)” value in the assay with Zea mays (ZEAMX) [6] is listed as 1 (1=0-20%). In addition, in assay [7], the “percentage damage to the plant, AMARE” value is 1 (1=0-20%). Besides, in the assay on Setaria faberi (SETFA) [8], the “percentage damage to the plant, SETFA” value is recorded as 1 (1=0-20%). Besides, in assay [9], the “percentage damage to the plant, ECHCG” value was 1 (1=0-20%). Also, in assay [10], the “percentage damage to the plant, IPOHE” value is 1 (1=0-20%). Besides, the “percentage damage to the plant, ABUTH” value in assay [11] is listed as 1 (1=0-20%). The “percentage damage to the plant, ZEAMX” value in the assay on Zea mays (ZEAMX) [12] is 1 (1=0-20%).

Turning to `CCn1c(C)c(-c2cc(F)c(OC)c(F)c2)c(=O)c(C(=O)O)c1-c1ccc(Cl)c(Cl)c1` [Compound 84, 2-(3,4-dichlorophenyl)-5-(3,5-difluoro-4-methoxy-phenyl)-1-ethyl-6-methyl-4-oxo-pyridine-3-carboxylic acid], the “Post-emergence Test ABUTH, percentage damage to the plant (five-point scale)” value in assay [1] is on record as 3 (3=41-60%). Further, in [2], the “Post-emergence Test AMARE, percentage damage to the plant (five-point scale)” value was 2 (2=21-40%). In addition, the “Post-emergence Test ECHCG, percentage damage to the plant (five-point scale)” value in assay [3] is reported as 1 (1=0-20%). The “Post-emergence Test IPOHE, percentage damage to the plant (five-point scale)” value in assay [4] was 3 (3=41-60%). Besides, the “Post-emergence Test SETFA, percentage damage to the plant (five-point scale)” value in the assay with Setaria faberi (SETFA) [5] is given as 3 (3=41-60%). In the assay on Zea mays (ZEAMX) [6], the “Post-emergence Test ZEAMX, percentage damage to the plant (five-point scale)” value was 1 (1=0-20%). The “percentage damage to the plant, AMARE” value in assay [7] was 1 (1=0-20%). For the same compound, in the assay with Setaria faberi (SETFA) [8], the “percentage damage to the plant, SETFA” value is listed as 4 (4=61-80%). The “percentage damage to the plant, ECHCG” value in assay [9] was 1 (1=0-20%). Moreover, in assay [10], the “percentage damage to the plant, IPOHE” value is recorded as 3 (3=41-60%). Besides, the “percentage damage to the plant, ABUTH” value in assay [11] is reported as 3 (3=41-60%). Besides, in the assay on Zea mays (ZEAMX) [12], the “percentage damage to the plant, ZEAMX” value is given as 1 (1=0-20%).

With `CCn1c(C)c(-c2ccc(C(C)(C)C)cc2)c(=O)c(C(=O)O)c1-c1ccc(Cl)c(Cl)c1` [Compound 55, 5-(4-tert-butylphenyl)-2-(3,4-dichlorophenyl)-1-ethyl-6-methyl-4-oxo-pyridine-3-carboxylic acid], the “Post-emergence Test ABUTH, percentage damage to the plant (five-point scale)” value in [1] is 1 (1=0-20%). Also, the “Post-emergence Test AMARE, percentage damage to the plant (five-point scale)” value in assay [2] was 1 (1=0-20%). The “Post-emergence Test ECHCG, percentage damage to the plant (five-point scale)” value in assay [3] is reported as 1 (1=0-20%). Moreover, the “Post-emergence Test IPOHE, percentage damage to the plant (five-point scale)” value in assay [4] is 1 (1=0-20%). In addition, the “Post-emergence Test SETFA, percentage damage to the plant (five-point scale)” value with Setaria faberi (SETFA) [5] is recorded as 1 (1=0-20%). The “Post-emergence Test ZEAMX, percentage damage to the plant (five-point scale)” value with Zea mays (ZEAMX) [6] is recorded as 1 (1=0-20%). Besides, the “percentage damage to the plant, AMARE” value in [7] was 1 (1=0-20%). In addition, the “percentage damage to the plant, SETFA” value in the assay with Setaria faberi (SETFA) [8] was 1 (1=0-20%). Also, the “percentage damage to the plant, ECHCG” value in assay [9] was 1 (1=0-20%). In addition, in [10], the “percentage damage to the plant, IPOHE” value was 1 (1=0-20%). Moreover, the “percentage damage to the plant, ABUTH” value in assay [11] is reported as 1 (1=0-20%). For the same compound, the “percentage damage to the plant, ZEAMX” value in the assay with Zea mays (ZEAMX) [12] was 1 (1=0-20%).

`CCn1c(C)c(-c2ccc(C(=O)N(C)C)cc2)c(=O)c(C(=O)O)c1-c1ccc(Cl)c(Cl)c1` [Compound 109, 2-(3,4-dichlorophenyl)-5-[4-(dimethylcarbamoyl)phenyl]-1-ethyl-6-methyl-4-oxo-pyridine-3-carboxylic acid]: the “Post-emergence Test ABUTH, percentage damage to the plant (five-point scale)” value in [1] is 3 (3=41-60%). Further, in assay [2], the “Post-emergence Test AMARE, percentage damage to the plant (five-point scale)” value was 1 (1=0-20%). The “Post-emergence Test ECHCG, percentage damage to the plant (five-point scale)” value in [3] is given as 2 (2=21-40%). Moreover, the “Post-emergence Test IPOHE, percentage damage to the plant (five-point scale)” value in [4] is 4 (4=61-80%). The “Post-emergence Test SETFA, percentage damage to the plant (five-point scale)” value in the assay with Setaria faberi (SETFA) [5] is listed as 3 (3=41-60%). Moreover, the “Post-emergence Test ZEAMX, percentage damage to the plant (five-point scale)” value in the assay with Zea mays (ZEAMX) [6] is on record as 1 (1=0-20%). Also, the “percentage damage to the plant, AMARE” value in [7] is 1 (1=0-20%). In addition, the “percentage damage to the plant, SETFA” value in the assay with Setaria faberi (SETFA) [8] was 4 (4=61-80%). Moreover, the “percentage damage to the plant, ECHCG” value in assay [9] is listed as 1 (1=0-20%). Further, the “percentage damage to the plant, IPOHE” value in assay [10] is given as 1 (1=0-20%). For the same compound, the “percentage damage to the plant, ABUTH” value in assay [11] is 1 (1=0-20%). Also, the “percentage damage to the plant, ZEAMX” value in the assay on Zea mays (ZEAMX) [12] was 1 (1=0-20%).

For the compound `CCn1c(C)c(-c2ccc(C(F)F)cc2)c(=O)c(C(=O)O)c1-c1ccc(Cl)c(Cl)c1` [Compound 76, 2-(3,4-dichlorophenyl)-5-[4-(difluoromethyl)phenyl]-1-ethyl-6-methyl-4-oxo-pyridine-3-carboxylic acid], the “Post-emergence Test ABUTH, percentage damage to the plant (five-point scale)” value in [1] is listed as 3 (3=41-60%). The “Post-emergence Test AMARE, percentage damage to the plant (five-point scale)” value in assay [2] is 1 (1=0-20%). For the same compound, the “Post-emergence Test ECHCG, percentage damage to the plant (five-point scale)” value in assay [3] is recorded as 2 (2=21-40%). The “Post-emergence Test IPOHE, percentage damage to the plant (five-point scale)” value in assay [4] was 2 (2=21-40%). Besides, the “Post-emergence Test SETFA, percentage damage to the plant (five-point scale)” value in the assay on Setaria faberi (SETFA) [5] is 3 (3=41-60%). Moreover, the “Post-emergence Test ZEAMX, percentage damage to the plant (five-point scale)” value in the assay on Zea mays (ZEAMX) [6] is reported as 1 (1=0-20%). Also, in assay [7], the “percentage damage to the plant, AMARE” value is 1 (1=0-20%). Also, the “percentage damage to the plant, SETFA” value in the assay on Setaria faberi (SETFA) [8] is listed as 3 (3=41-60%). In addition, the “percentage damage to the plant, ECHCG” value in assay [9] is given as 1 (1=0-20%). Moreover, the “percentage damage to the plant, IPOHE” value in assay [10] is on record as 2 (2=21-40%). Further, the “percentage damage to the plant, ABUTH” value in [11] was 2 (2=21-40%). The “percentage damage to the plant, ZEAMX” value with Zea mays (ZEAMX) [12] is on record as 1 (1=0-20%).

For the compound `CCOC(=O)c1c(-c2ccc(F)cc2F)n(CC)c(C)c(-c2ccc(Cl)cc2)c1=O` [Compound 134, ethyl 5-(4-chlorophenyl)-2-(2,4-difluorophenyl)-1-ethyl-6-methyl-4-oxo-pyridine-3-carboxylate], the “Post-emergence Test ABUTH, percentage damage to the plant (five-point scale)” value in assay [1] is listed as 3 (3=41-60%). The “Post-emergence Test AMARE, percentage damage to the plant (five-point scale)” value in assay [2] is recorded as 3 (3=41-60%). The “Post-emergence Test ECHCG, percentage damage to the plant (five-point scale)” value in assay [3] is given as 4 (4=61-80%). In addition, the “Post-emergence Test IPOHE, percentage damage to the plant (five-point scale)” value in assay [4] is recorded as 3 (3=41-60%). Also, the “Post-emergence Test SETFA, percentage damage to the plant (five-point scale)” value in the assay on Setaria faberi (SETFA) [5] is reported as 4 (4=61-80%). For the same compound, the “Post-emergence Test ZEAMX, percentage damage to the plant (five-point scale)” value with Zea mays (ZEAMX) [6] is reported as 3 (3=41-60%). Besides, the “percentage damage to the plant, AMARE” value in assay [7] is 1 (1=0-20%). In addition, the “percentage damage to the plant, SETFA” value in the assay with Setaria faberi (SETFA) [8] is recorded as 0. Further, the “percentage damage to the plant, ECHCG” value in assay [9] came out at 0. Besides, the “percentage damage to the plant, IPOHE” value in [10] came out at 0. Besides, the “percentage damage to the plant, ABUTH” value in assay [11] is recorded as 1 (1=0-20%). Further, in the assay on Zea mays (ZEAMX) [12], the “percentage damage to the plant, ZEAMX” value was 0.
